{"source": "patent US20050038111A1", "about": "“Pharmaceutical formulation comprising bicalutamide” (priority 2001, published 2005)", "key": {"[1]": {"assay": "pH shift dissolution test (SGF pH 1.5 then pH 6.5)", "assay_type": "physicochemical", "settings": "1 h SGF pH 1.5 then 1 h at pH 6.5"}, "[2]": {"assay": "Crystallinity assessment by X-ray powder diffraction (XRPD)", "assay_type": "physicochemical", "description": "Dispersion prepared from a solution of bicalutamide and tamoxifen citrate.\nX-ray diffraction analysis was performed according to standard methods which can be found in e.g. Bunn, C. W. (1948), Chemical Crystallography, Clarendon Press, London; or Klug, H. P. & Alexander, L. E. (1974), X-Ray Diffraction Procedures, John Wiley and Sons, New York."}}, "note": "Counter-ions that a name gives are not always drawn.", "data": [{"compound": "CC/C(=C(\\c1ccccc1)c1ccc(OCCN(C)C)cc1)c1ccccc1", "note": "[tamoxifen citrate, (Z)-2-[p-(1,2-diphenylbut-1-enyl)phenoxy]ethyldimethylamine]", "values": [{"measurement": "tamoxifen in solution post shift", "setting": "[1]", "result": "approx. 80%"}, {"measurement": "crystalline tamoxifen citrate by XRPD", "setting": "[2]", "result": "crystalline"}]}]}
